Test results reported in article PMC12713097, “ARL3 Enhances ERα Stability via USP10 Deubiquitination to Promote Endocrine Resistance and Drive Mitochondrial Metabolic Reprogramming in HR+ Breast Cancer” (Advanced Science, 2025).

Molecular target: ARL3 (Homo sapiens, UniProt P36405)
Assay: microscale thermophoresis (Monolith NT.[…])
Type: binding

Sequence of ARL3 (P36405 2-182): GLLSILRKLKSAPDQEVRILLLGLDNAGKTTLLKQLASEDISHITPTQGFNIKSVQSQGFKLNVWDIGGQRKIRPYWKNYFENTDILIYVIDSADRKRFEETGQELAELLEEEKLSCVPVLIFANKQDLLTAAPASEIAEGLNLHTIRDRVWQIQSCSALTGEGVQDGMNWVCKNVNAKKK

Kd: 12 µM
Compound: Cc1c(-c2ccc(N3CCc4cccc(C(=O)Nc5nc6ccccc6s5)c4C3)nc2C(=O)O)cnn1CC12CC3CC(CC(C3)C1)C2 [A-1331852]
